Experimental data from patent US9688662B2, “N-(2,3-dihydro-1H-pyrrolo[2,3-b]pyridin-5-yl)-4-quinazolinamine and N-(2,3-dihydro-1H-indol-5-yl)-4-quinazolinamine derivatives as perk inhibitors” (Janssen Pharmaceutica NV, priority 2013, dated 2017).

How the values were obtained:
PERK [1] = target: T1, PERK (Homo sapiens, UniProt Q9NZJ5); assay: In-vitro PERK enzyme inhibition assay (LanthaScreen, KIN_PERK); format: biochemical; parameters: GST (N); purchased Invitrogen PV5106; details: recombinant GST-PERK, GFP-eIF2 alpha substrate, 5 μM ATP, 60 minutes; for IC50: read-out: KIN_PERK pIC50 (converted)
T1 sequence (Q9NZJ5 30-1116): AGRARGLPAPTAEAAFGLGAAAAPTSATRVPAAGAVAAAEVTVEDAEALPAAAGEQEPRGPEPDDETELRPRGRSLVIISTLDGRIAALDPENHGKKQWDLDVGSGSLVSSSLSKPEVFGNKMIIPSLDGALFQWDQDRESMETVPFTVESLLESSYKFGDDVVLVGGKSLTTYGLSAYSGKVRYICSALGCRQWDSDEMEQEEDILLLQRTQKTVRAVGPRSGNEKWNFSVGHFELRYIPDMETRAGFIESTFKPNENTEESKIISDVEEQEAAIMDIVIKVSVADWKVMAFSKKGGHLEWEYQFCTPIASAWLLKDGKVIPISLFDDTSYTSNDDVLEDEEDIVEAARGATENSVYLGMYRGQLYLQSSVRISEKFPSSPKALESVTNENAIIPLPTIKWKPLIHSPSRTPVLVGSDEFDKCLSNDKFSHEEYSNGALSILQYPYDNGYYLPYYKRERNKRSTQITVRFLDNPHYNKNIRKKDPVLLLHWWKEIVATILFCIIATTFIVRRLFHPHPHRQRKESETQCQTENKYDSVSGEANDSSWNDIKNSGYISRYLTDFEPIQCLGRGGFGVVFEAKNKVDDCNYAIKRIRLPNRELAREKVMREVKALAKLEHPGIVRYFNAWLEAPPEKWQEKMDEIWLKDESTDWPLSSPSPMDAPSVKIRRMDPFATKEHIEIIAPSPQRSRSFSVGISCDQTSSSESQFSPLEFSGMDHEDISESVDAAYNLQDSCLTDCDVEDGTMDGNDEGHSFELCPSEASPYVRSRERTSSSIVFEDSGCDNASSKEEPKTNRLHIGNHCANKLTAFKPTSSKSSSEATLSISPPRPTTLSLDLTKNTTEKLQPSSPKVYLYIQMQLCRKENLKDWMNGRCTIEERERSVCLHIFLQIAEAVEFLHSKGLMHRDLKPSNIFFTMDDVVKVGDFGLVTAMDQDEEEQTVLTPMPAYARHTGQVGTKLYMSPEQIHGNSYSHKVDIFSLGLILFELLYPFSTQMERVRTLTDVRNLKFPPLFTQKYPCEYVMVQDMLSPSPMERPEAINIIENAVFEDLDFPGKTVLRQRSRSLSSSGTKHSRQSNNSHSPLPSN
Procedure: Pharmacology i) In-Vitro PERK Enzyme Inhibition Assay (KIN_PERK pIC50)
The compounds of the invention were tested for inhibitory activity against PERK in an enzyme inhibition assay.
A biochemical PERK kinase assay using LanthaScreen® technology from Invitrogen using recombinant GST-PERK (Invitrogen PV5106), GFP-eIF2 alpha (full length) as substrate (Invitrogen PV4809) and the Terbium-labeled antibody (Tb-anti-peIF2alpha (pSer52); Invitrogen PV4816) as detection reagent, was performed essentially as described by the manufacturer, using following specific parameters: […]

PERK [2] = target: T1, PERK; assay: Cell-based PERK inhibition assay (TR-FRET, phosphorylation of GFP-eIF2 alpha in HEK293 cells, tunicamycin); details: HEK293 (LanthaScreen eIF2α GripTite) cells, compounds 60 min, tunicamycin 2 microg/ml 120 min; for IC50: read-out: P-eIF2alpha_Lantha_cell pIC50 (converted)
Procedure: A cell-based TR-FRET assay to measure inhibition of phosphorylation of GFP-eIF2 alpha expressed in HEK293 cells by compounds was set up as follows:
LanthaScreen® eIF2α GripTite cells (Invitrogen M4387) were plated and incubated for 16-20 h at 37° C. and 5% CO2, incubated with test compounds for 60 min, and then stimulated with tunicamycin (2 microg/ml) for 120 min. Culture medium was aspirated from the wells and, the cells were lysed in LanthaScreen® Cellular Assay Lysis Buffer (Invitrogen; PV5598), supplemented with protease inhibitor cocktail (Sigma P8340, 1/1000 dilution) and phosphatase inhibitor cocktail (Sigma P0044, 1/1000 dilution), including 2 nM terbium-labeled eIF2a pSer52 antibody (Invitrogen; PV4816).

| SMILES | KIN_PERK pIC50 (PERK [1]) | melting point [°C] | P-eIF2alpha_Lantha_cell pIC50 (PERK [2]) | IC50 (PERK [1]) [nM] | IC50 (PERK [2]) [nM] |
| --- | --- | --- | --- | --- | --- |
| COc1cc2ncnc(Nc3ccc4c(c3F)CCN4C(=O)Cc3c(C)[nH]c4ccccc34)c2cc1OC [Compound 39, 1-[5-[(6,7-dimethoxyquinazolin-4-yl)amino]-4-fluoro-indolin-1-yl]-2-(2-methyl-1H-indol-3-yl)ethanone] | 9.0 | 174 | 7.9 |  |  |
| COc1cc2ncnc(Nc3ccc4c(c3)CCN4C(=O)Cc3nn(C)c4ccccc34)c2cc1OC [Compound 17] |  | 158 |  | 20 | 794 |
| COc1cc2ncnc(Nc3ccc4c(c3)CCN4C(=O)Cn3ccc4ccccc43)c2cc1OC [Compound 15] | 8.2 | 176 |  |  | ~302 |
| COc1cc2ncnc(Nc3ccc4c(c3)CCN4C(=O)Cc3cccs3)c2cc1OC [Compound 20] |  | 219 |  | 31.6 | 1260 |
| COc1cc2ncnc(Nc3ccc4c(c3)CCN4C(=O)Cc3ccn(C)n3)c2cc1OC [Compound 28] | 6.6 | 199 | 5.1 |  |  |
| COc1cc2ncnc(Nc3ccc4c(c3)CCN4C(=O)Cc3c(Br)cnn3C)c2cc1OC [Compound 11, 2-(4-bromo-2-methyl-pyrazol-3-yl)-1-[5-[(6,7-dimethoxyquinazolin-4-yl)amino]indolin-1-yl]ethanone] |  | 170 |  | 7.94 | 251 |
| COc1cc2ncnc(Nc3ccc4c(c3)CCN4C(=O)Cc3c[nH]c4ccccc34)c2cc1OC [Compound 40] |  | 180 |  | 12.6 | 631 |
| COc1cc2ncnc(Nc3ccc4c(c3)CCN4C(=O)Cc3cc(F)ccc3F)c2cc1OC [Compound 42] |  | > 260 |  | 6.31 | 631 |
| COc1cc2ncnc(Nc3ccc4c(c3)CCN4C(=O)Cc3c(C)n(C)c4ccccc34)c2cc1OC [Compound 5] |  | 168 |  | 1.26 | 63.1 |
| COc1cc2ncnc(Nc3ccc4c(c3)CCN4C(=O)Cc3coc4ccccc34)c2cc1OC [Compound 30] | 8.0 | 165 |  |  | > 30200 |
